The results in this text go back to patent US20250197387A1, “BCL-XL DEGRADERS AND USES THEREOF” (Kymera Therapeutics, Inc., priority 2021, published 2025).

Each structure is given as a SMILES string.

The target in experiment [1] is T1, BCL-XL (Homo sapiens, UniProt Q07817).
T1 construct: endogenous in cells; host or cells: MOLT-4
Put plainly: BCL-XL degradation assay, western blot in MOLT-4 cells, 16 h. It is filed as cell-based. The following applies: for DC50: read-out: Bcl-xL WB in MOLT-4 degradation 16 h: Mean external-Abs DC50. As to the method: Compounds treatment: compounds were reconstituted in DMSO to make a stock concentration of 10 mM. MOLT-4 cells were maintained in RPMI-1640+10% FBS+1% Penicillin-Streptomycin. Cells were seeded into 6-well plates in 2 mL at the seeding density of 2e6 cells/mL. Compounds were added to the cells to a final concentration ranging 0.02-10 μM. After 16 hr incubation at 37° C., in a CO2 incubator, cells were collected in an Eppendorf tube and centrifuged at 200×g for 5 minutes, the supernatant removed and pellets washed with ice-cold PBS, centrifuged and supernatant removed again. Then. 50 μl of pre-chilled RIPA lysis buffer (Boston BioProducts. BP-115D) with protease and phosphatase inhibitors (Roche Applied Science. #04906837001 and #04693116001) was added into cell pellet to lyze the cells for 20 minutes under 4° C. Cell lysates were spin at 13000 rpm for 10 minutes. Supernatants were collected and protein concentration was measured by BCA assay kit (Solarbio. PC0020-500) following the manufacturer's protocol. Samples' final protein concentration was adjusted to 3.75 μg/uL with the RIPA lysis buffer based on BCA assay results and 4× loading buffer (Invitrogen. NP0007) was added into the samples and samples were heated to 85° C., for 10 min and then let cool at RT. Samples were centrifuged at 13000 rpm for 10 min and then loaded into a 26-well NuPAGER. Novex 4-12% Bis-Tris Midi Gel (Invitrogen. WG1403BOX) and run in NuPAGER MOPS SDS Running Buffer (Invitrogen. NP0001) for 180 minutes at 70 V into a XCell4 SureLock™ Midi-Cell Runner (Invitrogen. WR0100). Gel were transferred using the Invitrogen iBlot gel transfer device (Invitrogen. IB21001) and the nitrocellulose transfer stacks (Invitrogen, IB23001) with Program PO for 9 minutes. The membrane was then blocked with 5% bovin serum albumin for 1 hr at RT, then incubated with primary antibodies diluted in blocking buffer (LI-COR. 927-60001) and shake at 4° C., overnight. The primary antibodies were anti-BCL-xL antibody (CST. 2762:1:1000), anti-beta-actin (CST. 3700; 1:5000) and anti-GAPDH (CST. 97166:1:5000). Membranes were then washed three times with PBST for 15 minutes at RT. Secondary antibodies IR-Dye 680 CW Goat anti Mouse IgG (LI-COR. 926-68070) and IR-Dye 800 CW Goat anti Rabbit IgG (LI-COR. 926-32211) were diluted at a ratio of 1:10000 into PBST and membranes incubated for 1 hour at RT. Membranes were then washed three times with PBST for 15 minutes at RT. The western blot images were obtained using Odyssey Imaging System and quantified using Image Studio Lite Ver 5.2 software.
(§1) The letter codes for BCL-XL DC50 include: A (<0.01 μM); B (0.01-0.1 μM); C (>[…]); D (>0.5-1.0 μM); and E (>1.0 μM). The letter codes for Dmax % include A (>75%); B (50 to 75%); C (<50%).
(In western blotting, separated proteins are transferred to a membrane and probed.)

The target in experiment [2] is T1, BCL-XL. Put plainly: Bcl-xL ELISA degradation in MOLT-4 cells, 6 h. The format is cell-based. As to the method:
as §1

Setting [3] is: western blot, MOLT-4 cells, 16 h, read-out: Bcl-xL WB in MOLT-4 degradation 16 h: Average Dmax %.
Setting [4] is: western blot, MOLT-4 cells, 16 h.

T1 sequence (Q07817 whole entry): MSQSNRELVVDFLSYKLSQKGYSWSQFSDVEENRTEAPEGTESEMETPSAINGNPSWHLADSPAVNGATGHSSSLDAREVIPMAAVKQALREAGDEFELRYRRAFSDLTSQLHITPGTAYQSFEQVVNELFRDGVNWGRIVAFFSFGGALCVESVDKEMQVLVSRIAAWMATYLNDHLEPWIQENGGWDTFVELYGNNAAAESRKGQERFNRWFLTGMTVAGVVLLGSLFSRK

On to `Cc1ncsc1-c1ccc(CNC(=O)[C@@H]2C[C@@H](O)CN2C(=O)[C@@H](NC(=O)C2(F)CC2)C(C)(C)C)c(O[C@H]2CC[C@@H](N3CCN(CC[C@H](CSc4ccccc4)Nc4ccc(S(=O)(=O)NC(=O)c5ccc(N6CCN(CC7=C(c8ccc(Cl)cc8)CCC(C)(C)C7)CC6)cc5)cc4S(=O)(=O)C(F)(F)F)CC3)CC2)c1` (single isomer, unassigned) [I-115], for which, on BCL-XL [1] (setting [3]), the Dmax (commonly the largest share of the target that was removed) was below 50%. The DC50 – broadly, the concentration at which degradation of the target reaches its halfway point – at BCL-XL [1] (setting [4]) is above 1000 nM.
The corresponding values for `Cc1ncsc1-c1ccc([C@H](C)NC(=O)[C@@H]2C[C@@H](O)CN2C(=O)[C@@H](NC(=O)CCCC(=O)N(C)CCCc2cccc(F)c2OCCCc2sc(N3CCc4cccc(C(=O)Nc5nc6ccccc6s5)c4C3)nc2C(=O)O)C(C)(C)C)cc1` [I-9] are above 75% and 100 to 500 nM.
In the case of `C#Cc1ccc(CNC(=O)[C@@H]2C[C@@H](O)CN2C(=O)[C@@H](NC(=O)C2(F)CC2)C(C)(C)C)c(OCC(=O)N2CCN(CC[C@H](CSc3ccccc3)Nc3ccc(S(=O)(=O)NC(=O)c4ccc(N5CCN(CC6=C(c7ccc(Cl)cc7)CCC(C)(C)C6)CC5)cc4)cc3S(=O)(=O)C(F)(F)F)CC2)c1` [I-92], on BCL-XL [1] (setting [3]), the Dmax was above 75%. In addition, at BCL-XL [1] (setting [4]), the DC50 lay in the range of 100 to 500 nM.
In the same order, the values of `Cc1ncsc1-c1ccc(CNC(=O)[C@@H]2C[C@@H](O)CN2C(=O)[C@@H](NC(=O)C2(F)CC2)C(C)(C)C)c(O[C@H]2C[C@H](C(=O)N3CCN(CC[C@H](CSc4ccccc4)Nc4ccc(S(=O)(=O)NC(=O)c5ccc(N6CCN(CC7=C(c8ccc(Cl)cc8)CCC(C)(C)C7)CC6)cc5)cc4S(=O)(=O)C(F)(F)F)CC3)C2)c1` [I-91] are below 50% and above 1000 nM.
In the same order, the values of `Cc1ncsc1-c1ccc([C@H](C)NC(=O)[C@@H]2C[C@@H](O)CN2C(=O)[C@@H](NC(=O)CCCCCC(=O)N2CCN(CC#Cc3ccc(OCCCc4sc(N5CCc6cccc(C(=O)Nc7nc8ccccc8s7)c6C5)nc4C(=O)O)cc3)CC2)C(C)(C)C)cc1` [I-93] are 50 to 75% and above 1000 nM.
In the same order, the values of `Cc1ncsc1-c1ccc(CNC(=O)[C@@H]2C[C@@H](O)CN2C(=O)[C@@H](NC(=O)C2(F)CC2)C(C)(C)C)c(OCCCCCCCCC(=O)N(C)CC#Cc2ccc(OCCCc3sc(N4CCc5cccc(C(=O)Nc6nc7ccccc7s6)c5C4)nc3C(=O)O)c(F)c2)c1` [I-386] are above 75% and 10 to 100 nM.
Regarding `Cc1cc(N(CCN(C)C(=O)CCCCCCCCC(=O)N[C@H](C(=O)N2C[C@H](O)C[C@H]2C(=O)N[C@@H](C)c2ccc(-c3scnc3C)cc2)C(C)(C)C)c2ccc(-c3cnn(CC4CCCCC4)c3C)c(C(=O)O)n2)nnc1Nc1nc2ccccc2s1` [I-101], the greatest degradation seen (Dmax) on BCL-XL [1] (setting [3]) was below 50%. Also, on BCL-XL [1] (setting [4]), the DC50 was above 1000 nM.
As for `Cc1ncsc1-c1ccc([C@H](C)NC(=O)[C@@H]2C[C@@H](O)CN2C(=O)[C@@H](NC(=O)CCCCCCCCC(=O)N2CCN(CC[C@H](CSc3ccccc3)Nc3ccc(S(=O)(=O)NC(=O)c4ccc(N5CCN(CC6=C(c7ccc(Cl)cc7)CCC(C)(C)C6)CC5)cc4)cc3S(=O)(=O)C(F)(F)F)CC2)C(C)(C)C)cc1` [I-1, (2S,4R)-1-((S)-2-(10-(4-((R)-3-((4-(N-(4-(4-((4′-chloro-4,4-dimethyl-3,4,5,6-tetrahydro-[1,1′-biphenyl]-2-yl)methyl)piperazin-1-yl)benzoyl)sulfamoyl)-2-((trifluoromethyl)sulfonyl)phenyl)amino)-4-(phenylthio)butyl)piperazin-1-yl)-10-oxodecanamido)-3,3-dimethylbutanoyl)-4-hydroxy-N-((S)-1-(4-(4-methylthiazol-5-yl)phenyl)ethyl)pyrrolidine-2-carboxamide], on BCL-XL [1] (setting [3]), the Dmax was above 75%. In addition, on BCL-XL [1] (setting [4]), the DC50 is 100 to 500 nM.
In the same order, the values of `Cc1ncsc1-c1ccc([C@H](C)NC(=O)[C@@H]2C[C@@H](O)CN2C(=O)[C@@H](NC(=O)CCCCCS(=O)(=O)NC(=O)c2cccc(N3CCc4cccc(C(=O)Nc5nc6ccccc6s5)c4C3)n2)C(C)(C)C)cc1` [I-119] are below 50% and above 1000 nM.
In the same order, the values of `Cc1ncsc1-c1ccc([C@H](C)NC(=O)[C@@H]2C[C@@H](O)CN2C(=O)[C@@H](NC(=O)CCc2ccc(N3CCc4cccc(C(=O)Nc5nc6ccccc6s5)c4C3)nc2C(=O)O)C(C)(C)C)cc1` [I-40] are below 50% and above 1000 nM.
The corresponding values for `CC1(C)CCC(c2ccc(Cl)cc2)=C(CN2CCN(c3ccc(C(=O)NS(=O)(=O)c4ccc(N[C@H](CCN5CCN(C(=O)COc6cc(F)ccc6CNC(=O)[C@@H]6C[C@@H](O)CN6C(=O)[C@@H](NC(=O)C6(F)CC6)C(C)(C)C)CC5)CSc5ccccc5)c(S(=O)(=O)C(F)(F)F)c4)cc3)CC2)C1` [I-98] are below 50% and above 1000 nM.
`Cc1ncsc1-c1ccc(CNC(=O)[C@@H]2C[C@@H](O)CN2C(=O)[C@@H](NC(=O)C2(F)CC2)C(C)(C)C)c(OCCCCCC(=O)N(C)CC#Cc2ccc(OCCCc3sc(N4CCc5cccc(C(=O)Nc6nc7ccccc7s6)c5C4)nc3C(=O)O)c(F)c2)c1` [I-7]: the Dmax on BCL-XL [1] (setting [3]) is 50 to 75%. Also, on BCL-XL [1] (setting [4]), the DC50 is 500 to 1000 nM.
Consider `Cc1ncsc1-c1ccc(CNC(=O)[C@@H]2C[C@@H](O)CN2C(=O)[C@@H](NC(=O)C2(F)CC2)C(C)(C)C)c(OCCCN2CCN(CC[C@H](CSc3ccccc3)Nc3ccc(S(=O)(=O)NC(=O)c4ccc(N5CCN(CC6=C(c7ccc(Cl)cc7)CCC(C)(C)C6)CC5)cc4)cc3S(=O)(=O)C(F)(F)F)CC2)c1` [I-132, (2S,4R)—N-(2-(3-(4-((R)-3-((4-(N-(4-(4-((4′-chloro-4,4-dimethyl-3,4,5,6-tetrahydro-[1,1′-biphenyl]-2-yl)methyl)piperazin-1-yl)benzoyl)sulfamoyl)-2-((trifluoromethyl)sulfonyl)phenyl)amino)-4-(phenylthio)butyl)piperazin-1-yl)propoxy)-4 (4-methylthiazol-5-yl)benzyl)-1-((S)-2-(1-fluorocyclopropanecarboxamido)-3,3-dimethylbutanoyl)-4-hydroxypyrrolidine-2-carboxamide], for which, on BCL-XL [1] (MOLT-4, read-out: Bcl-xL WB in MOLT-4 degradation 16 h: Average Dmax %), the Dmax is above 75%. In addition, the DC50 on BCL-XL [1] (setting [4]) lay in the range of 10 to 100 nM.
On to `Cc1ncsc1-c1ccc(CNC(=O)[C@@H]2C[C@@H](O)CN2C(=O)C(c2cc(OCCCCCC(=O)N(C)CC#Cc3ccc(OCCCc4sc(N5CCc6cccc(C(=O)Nc7nc8ccccc8s7)c6C5)nc4C(=O)O)c(F)c3)no2)C(C)C)cc1` (some centres unmarked) [I-87], for which the Dmax on BCL-XL [1] (setting [3]) is above 75%. In addition, on BCL-XL [1] (setting [4]), the DC50 is 10 to 100 nM.
For `Cc1ncsc1-c1ccc(CNC(=O)[C@@H]2C[C@@H](O)CN2C(=O)[C@@H](NC(=O)C2(F)CC2)C(C)(C)C)c(OCCCCCC(=O)N(C)CCCc2cccc(F)c2OCCCc2sc(N3CCc4cccc(C(=O)Nc5nc6ccccc6s5)c4C3)nc2C(=O)O)c1` [I-13], the Dmax at BCL-XL [1] (setting [3]) is above 75%. Besides, on BCL-XL [1] (setting [4]), the DC50 is 100 to 500 nM.
In the same order, the values of `Cc1cc(N(CCN(C)C(=O)CCCC(=O)N[C@H](C(=O)N2C[C@H](O)C[C@H]2C(=O)N[C@@H](C)c2ccc(-c3scnc3C)cc2)C(C)(C)C)c2ccc(-c3cnn(CC4CCCCC4)c3C)c(C(=O)O)n2)nnc1Nc1nc2ccccc2s1` [I-99] are 50 to 75% and above 1000 nM.
The corresponding values for `Cc1ncsc1-c1ccc([C@H](C)NC(=O)[C@@H]2C[C@@H](O)CN2C(=O)[C@@H](NC(=O)CCCS(=O)(=O)NC(=O)c2nc(N3CCc4cccc(C(=O)Nc5nc6ccccc6s5)c4C3)ccc2-c2cnn(CC34CC5CC(CC(C5)C3)C4)c2C)C(C)(C)C)cc1` [I-117] are above 75% and below 10 nM.
At BCL-XL [2], `Cc1ncsc1-c1ccc([C@H](C)NC(=O)[C@@H]2C[C@@H](O)CN2C(=O)[C@@H](NC(=O)N2CCC3(CCN(CC#Cc4ccc(OCCCc5sc(N6CCc7cccc(C(=O)Nc8nc9ccccc9s8)c7C6)nc5C(=O)O)c(F)c4)CC3)CC2)C(C)(C)C)cc1` [I-71] returned a Dmax below 50%.
